In patent US20260274892A1, “MACROCYCLIC BROAD SPECTRUM ANTIBIOTICS” (RQx Pharmaceuticals, Inc., priority 2017, published 2026):

How the values were obtained:
[1] = tested on: Escherichia coli ATCC 25922; test: Minimum inhibitory concentration (MIC), CLSI broth micro-dilution, E. coli; type: cell-based; settings: Escherichia coli, ATCC25922, 22 h, Table 6, cation adjusted Mueller Hinton Broth + 0.002% Tween-80, 35° C.
Method in brief: (§1)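 Colonies grown 20 h at 35° C on Trypticase Soy agar (MRSA) or Luria agar (E. coli) were suspended in cation-adjusted Mueller Hinton broth with 0.002% Tween-80. Suspensions were added at OD600 0.0005 to 10-point twofold compound dilutions, then incubated 22 h at 35° C.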

[2] = tested on: Methicillin Resistant Staphylococcus aureus strain USA 200; test: Minimum inhibitory concentration (MIC), CLSI broth micro-dilution, S. aureus; type: cell-based; settings: Staphylococcus aureus, MRSA / USA200; Table 6; MRSA USA 200; cation adjusted Mueller Hinton Broth + 0.002% Tween-80; 35° C., 22 hours
Method in brief: as §1

Row | SMILES | MIC [1] [µM] | MIC [2] [µM]
1 | Cc1nc(-c2ccc(C(C)(C)C)cc2)ncc1C(=O)N[C@@H](CCN)C(=O)N(C)[C@@H]1C(=O)N[C@@H](C)C(=O)N[C@H](C(=O)NCC#N)Cc2ccc(OC[C@H](C)N)c(c2)-c2cc1ccc2OC[C@H](C)N (racemic) [Compound 438, rac-(8S,11S,14S)-N-(cyanomethyl)-11-methyl-14-[methyl-[rac-(2S)-4-amino-2-[[2-(4-tert-butylphenyl)-4-methyl-pyrimidine-5-carbonyl]amino]butanoyl]amino]-10,13-dioxo-3,18-bis[rac-(2S)-2-aminopropoxy]-9,12-diazatricyclo[13.3.1.12,6]icosa-1(18),2(20),3,5,15(19),16-hexaene-8-carboxamide] | 0.16 | 0.012
2 | CCCCCCCCc1ccc(C(=O)N[C@@H](CC(=O)NC)C(=O)N(C)[C@@H]2C(=O)N[C@@H](C)C(=O)N[C@H](C(=O)NCC#N)Cc3ccc(OCCN)c(c3)-c3cc2ccc3OCCN)c(C)c1 (racemic) [Compound 443, rac-(2S)-N,N′-dimethyl-2-[(2-methyl-4-octyl-benzoyl)amino]-N-[rac-(7S,10S,13S)-3,18-bis(2-aminoethoxy)-13-(cyanomethylcarbamoyl)-10-methyl-8,11-dioxo-9,12-diazatricyclo[13.3.1.12,6]icosa-1(19),2,4,6(20),15,17-hexaen-7-yl]butanediamide] | 4.2 | 0.27
3 | CCCCCCCCc1ccc(C(=O)N[C@@H](CCC(=O)N(C)C)C(=O)N(C)[C@@H]2C(=O)N[C@@H](C)C(=O)N[C@H](C(=O)NCC#N)Cc3ccc(OCCN)c(c3)-c3cc2ccc3OCCN)c(C)c1 (racemic) [Compound 444, rac-(2S)-N,N′,N′-trimethyl-2-[(2-methyl-4-octyl-benzoyl)amino]-N-[rac-(7S,10S,13S)-3,18-bis(2-aminoethoxy)-13-(cyanomethylcarbamoyl)-10-methyl-8,11-dioxo-9,12-diazatricyclo[13.3.1.12,6]icosa-1(19),2,4,6(20),15,17-hexaen-7-yl]pentanediamide] | 4.1 | 0.064
4 | CCCCCCCCc1ccc(C(=O)N[C@@H](CCC(=O)NCC)C(=O)N(C)[C@@H]2C(=O)N[C@@H](C)C(=O)N[C@H](C(=O)NCC#N)Cc3ccc(OCCN)c(c3)-c3cc2ccc3OCCN)c(C)c1 (racemic) [Compound 445, rac-(2S)-N′-ethyl-N-methyl-2-[(2-methyl-4-octyl-benzoyl)amino]-N-[rac-(7S,10S,13S)-3,18-bis(2-aminoethoxy)-13-(cyanomethylcarbamoyl)-10-methyl-8,11-dioxo-9,12-diazatricyclo[13.3.1.12,6]icosa-1(19),2,4,6(20),15,17-hexaen-7-yl]pentanediamide] | 4.1 | 0.13
5 | CCCCCCCCc1ccc(C(=O)N[C@@H](CCC(=O)NCCO)C(=O)N(C)[C@@H]2C(=O)N[C@@H](C)C(=O)N[C@H](C(=O)NCC#N)Cc3ccc(OCCN)c(c3)-c3cc2ccc3OCCN)c(C)c1 (racemic) [Compound 446, rac-(2S)-N′-(2-hydroxyethyl)-N-methyl-2-[(2-methyl-4-octyl-benzoyl)amino]-N-[rac-(7S,10S,13S)-3,18-bis(2-aminoethoxy)-13-(cyanomethylcarbamoyl)-10-methyl-8,11-dioxo-9,12-diazatricyclo[13.3.1.12,6]icosa-1(19),2,4,6(20),15,17-hexaen-7-yl]pentanediamide] | 4.1 | 0.032
6 | CCCCCCCCc1ccc(C(=O)N[C@@H](CCC(=O)NC2COC2)C(=O)N(C)[C@@H]2C(=O)N[C@@H](C)C(=O)N[C@H](C(=O)NCC#N)Cc3ccc(OCCN)c(c3)-c3cc2ccc3OCCN)c(C)c1 (racemic) [Compound 447, rac-(2S)-N-methyl-2-[(2-methyl-4-octyl-benzoyl)amino]-N′-(oxetan-3-yl)-N-[rac-(7S,10S,13S)-3,18-bis(2-aminoethoxy)-13-(cyanomethylcarbamoyl)-10-methyl-8,11-dioxo-9,12-diazatricyclo[13.3.1.12,6]icosa-1(19),2,4,6(20),15,17-hexaen-7-yl]pentanediamide] | 4.2 | 0.033
7 | CCCCCCCCc1ccc(C(=O)N[C@@H](CCC(=O)NC(CO)CO)C(=O)N(C)[C@@H]2C(=O)N[C@@H](C)C(=O)N[C@H](C(=O)NCC#N)Cc3ccc(OCCN)c(c3)-c3cc2ccc3OCCN)c(C)c1 (racemic) [Compound 448, rac-(2S)-N′-[2-hydroxy-1-(hydroxymethyl)ethyl]-N-methyl-2-[(2-methyl-4-octyl-benzoyl)amino]-N-[rac-(7S,10S,13S)-3,18-bis(2-aminoethoxy)-13-(cyanomethylcarbamoyl)-10-methyl-8,11-dioxo-9,12-diazatricyclo[13.3.1.12,6]icosa-1(19),2,4,6(20),15,17-hexaen-7-yl]pentanediamide] | 4.1 | 0.13
8 | CCCCCc1ccc(-c2ncc(C(=O)N[C@@H](CCNC(N)=O)C(=O)N(C)[C@@H]3C(=O)N[C@@H](C)C(=O)N[C@H](C(=O)NCC#N)Cc4ccc(OCCN)c(c4)-c4cc3ccc4OCCN)c(C)n2)cc1 (racemic) [Compound 451, rac-(8S,11S,14S)-3,18-bis(2-aminoethoxy)-N-(cyanomethyl)-11-methyl-14-[methyl-[rac-(2S)-2-[[4-methyl-2-(4-pentylphenyl)pyrimidine-5-carbonyl]amino]-4-ureido-butanoyl]amino]-10,13-dioxo-9,12-diazatricyclo[13.3.1.12,6]icosa-1(18),2(20),3,5,15(19),16-hexaene-8-carboxamide] | 0.76 | 0.047
9 | Cc1nc(-c2ccc(C(C)(C)C)cc2)ncc1C(=O)N[C@@H](CCNC(N)=O)C(=O)N(C)[C@@H]1C(=O)N[C@@H](C)C(=O)N[C@H](C(=O)NCC#N)Cc2ccc(OCCN)c(c2)-c2cc1ccc2OCCN (racemic) [Compound 452, rac-(8S,11S,14S)-3,18-bis(2-aminoethoxy)-N-(cyanomethyl)-11-methyl-14-[methyl-[rac-(2S)-2-[[2-(4-tert-butylphenyl)-4-methyl-pyrimidine-5-carbonyl]amino]-4-ureido-butanoyl]amino]-10,13-dioxo-9,12-diazatricyclo[13.3.1.12,6]icosa-1(18),2(20),3,5,15(19),16-hexaene-8-carboxamide] | 1.3 | 0.13
10 | CCCCCCCc1ccc(C(=O)N[C@@H](CNC)C(=O)N(C)[C@@H]2C(=O)N[C@@H](C)C(=O)N[C@H](C(=O)NCC#N)Cc3ccc(OCCN)c(c3)-c3cc2ccc3OCCN)c(C)c1 (racemic) [Compound 453, rac-(8S,11S,14S)-3,18-bis(2-aminoethoxy)-N-(cyanomethyl)-11-methyl-14-[methyl-[rac-(2S)-2-[(4-heptyl-2-methyl-benzoyl)amino]-3-(methylamino)propanoyl]amino]-10,13-dioxo-9,12-diazatricyclo[13.3.1.12,6]icosa-1(18),2(20),3,5,15(19),16-hexaene-8-carboxamide] | 1.1 | 0.026
11 | CCCCCCCc1ccc(C(=O)N[C@@H](CS)C(=O)N(C)[C@@H]2C(=O)N[C@@H](C)C(=O)N[C@H](C(=O)NCC#N)Cc3ccc(OCCN)c(c3)-c3cc2ccc3OCCN)c(C)c1 (racemic) [Compound 454, rac-(8S,11S,14S)-3,18-bis(2-aminoethoxy)-N-(cyanomethyl)-11-methyl-14-[methyl-[rac-(2R)-2-[(4-heptyl-2-methyl-benzoyl)amino]-3-sulfanyl-propanoyl]amino]-10,13-dioxo-9,12-diazatricyclo[13.3.1.12,6]icosa-1(18),2(20),3,5,15(19),16-hexaene-8-carboxamide] | 4.4 | 0.55
12 | CCCCCCCc1ccc(C(=O)N[C@H](CCN)C(=O)N(C)[C@@H]2C(=O)N[C@@H](C)C(=O)N[C@H](C(=O)NCC#N)Cc3ccc(OCCN)c(c3)-c3cc2ccc3OCCN)c(C)c1 (racemic) [Compound 456, rac-(8S,11S,14S)-3,18-bis(2-aminoethoxy)-N-(cyanomethyl)-11-methyl-14-[methyl-[rac-(2R)-4-amino-2-[(4-heptyl-2-methyl-benzoyl)amino]butanoyl]amino]-10,13-dioxo-9,12-diazatricyclo[13.3.1.12,6]icosa-1(18),2(20),3,5,15(19),16-hexaene-8-carboxamide] | 3.3 | 0.56
13 | Cc1nc(-c2ccc(C(C)(C)C)cc2)ncc1C(=O)N[C@@H](CN)C(=O)N(C)[C@@H]1C(=O)N[C@@H](C)C(=O)N[C@H](C(=O)NCC#N)Cc2ccc(OCCN)c(c2)-c2cc1ccc2OCCN (racemic) [Compound 457, rac-(8S,11S,14S)-3,18-bis(2-aminoethoxy)-N-(cyanomethyl)-11-methyl-14-[methyl-[rac-(2S)-3-amino-2-[[2-(4-tert-butylphenyl)-4-methyl-pyrimidine-5-carbonyl]amino]propanoyl]amino]-10,13-dioxo-9,12-diazatricyclo[13.3.1.12,6]icosa-1(18),2(20),3,5,15(19),16-hexaene-8-carboxamide] | 0.27 | 0.025
14 | Cc1nc(-c2ccc(CC(C)C)cc2)ncc1C(=O)N[C@@H](CCO)C(=O)N(C)[C@@H]1C(=O)N[C@@H](C)C(=O)N[C@H](C(=O)NCC#N)Cc2ccc(OCCN)c(c2)-c2cc1ccc2OCCN (racemic) [Compound 458, rac-(8S,11S,14S)-3,18-bis(2-aminoethoxy)-N-(cyanomethyl)-11-methyl-14-[methyl-[rac-(2S)-4-hydroxy-2-[[2-(4-isobutylphenyl)-4-methyl-pyrimidine-5-carbonyl]amino]butanoyl]amino]-10,13-dioxo-9,12-diazatricyclo[13.3.1.12,6]icosa-1(18),2(20),3,5,15(19),16-hexaene-8-carboxamide] | 1.1 | 0.033
